Test results as given in patent publication US11186603B2, “Heparan sulfate glycomimetic compounds and their pharmaceutical and cosmeceutical uses” (VICTORIA LINK LIMITED, priority 2017, dated 2021).
Where “and” joins values, the source holds several entries; their conditions need not be identical. Equal values may be shown once. Read-outs that look alike come from different tables or passages of the source.

What was measured:
[1] = system: ND41001 (AD) fibroblast cell line; assay: NPC cholesterol activity: filipin staining, LSO ratio; format: cell-based, human; settings: 10 μM, 48 hours
Text: (§1) Fibroblast cell lines derived from Alzheimer and Niemann-Pick Type C (NPC) patients and healthy controls were obtained from the […] (Camden, N.J., USA). Cell line GM03123 was derived from a NPC patient with two heterozygous mutations in the NPC1 gene. Cell line GM09503 was used as a healthy control for the NPC cell line. Cell line ND41001 was derived from a patient carrying a Presenilin 1 mutation with familial (early onset) Alzheimer's disease (AD). Cell line ND38530 was used as a healthy control for the AD cell line. Further details of the cell lines are available at the Cornell Cell Repository website (https://catalog.coriell.org/).
(§2) Cell culture work was carried out in sterile conditions in an Email Air Handling Class II Biological Safety Cabinet (AES Environmental Pty LTD, Australia). All cell lines were cultured in DMEM (10313-021, Life Technologies New Zealand) supplemented with 10% fetal calf serum (Thermo Fisher Scientific New Zealand), 1× GlutaMAX™ Supplement (stabilised L-glutamine, Gibco Life Technologies New Zealand), 100 units/mL penicillin and 100 units/mL streptomycin (Life Technologies New Zealand). Cell lines were maintained in or 75 cm^2 flasks (Corning, Invitro Technologies New Zealand) in a humidified incubator (Sanyo Electric Co. Ltd, Japan) at 37° C. and 5% CO2. Experimental cultures were carried out in the same media omitting the antibiotics to avoid any potential interaction with the compound being tested.
(§3) For experiments, cells were seeded at a density of 1.25×10^3 cells/mL in black, 96 well plates (Cell-carrier, Perkin Elmer, Scimed New Zealand) in a volume of 100 μL media and grown for 24 hours before treating. The media was then replaced with fresh media supplemented with the required treatment. Cell lines GM03123 and ND41001 were either left untreated, or treated with either 10 μM or 100 μM of the heparan sulphate compound dissolved in sterile deionised water (dH20), 10 μM suberoylanilide hydroxamic acid (SAHA) dissolved in DMSO, or 0.1% DMSO. The healthy control cell lines GM09503 and ND38530 were left untreated or treated with U18666A dissolved in sterile dH20 at a final concentration of 1 μg/mL. U18666A causes cholesterol accumulation in the cell and is therefore a positive control for the filipin stain. Cells were then grown for 48 hours.
(§4) Before fixing, cells were washed three times with 1× phosphate buffered saline (PBS). From this point all treatments and washes were undertaken on a rotating table at 45 revs per minute. Cells were fixed with 1.5% paraformaldehyde (PFA) in 1×PBS (Thermo Fisher Scientific New Zealand) for 20 minutes. Cells were then washed with 1×PBS for four minutes. This was repeated twice. The cells were then stained for 2 hours with 50 μg/mL Filipin dye (Filipin complex from Streptomyces filipinensis, Sigma Aldrich, Australia) protected from the light. With minimal light exposure, the cells were washed with 1×PBS for four minutes and this was repeated twice. Cells were left in 1×PBS for confocal microscopy. The filipin stained cells were imaged using a Perkin Elmer Opera™ high-throughput spinning disk confocal microscope using 405 nm laser and 20× water immersion objective. Perkin Elmer Acapella™ software was used for image analysis. In NPC cells cholesterol accumulates in organelles with the characteristics of late endosomes or early lysosomes. These can be described as lysosome-like storage organelles (LSO). Analysis of free cholesterol levels in the cells was carried out using a method designed for high throughput confocal images described by Pipalia et al., Automated microscopy screening for compounds that partially revert cholesterol accumulation in Niemann-Pick C cells, J. Lipid Res., 2006, 47(2): 284-301. A low fluorescence threshold was chosen which identified the total area occupied by cells and another higher threshold was chosen to determine the areas of bright filipin staining of cholesterol within the cell. […]

[2] = system: GM03123 (NPC) fibroblast cell line; assay: as above; format: cell-based, human; settings: GM03123 (NPC), 10 μM, 48 hours; LSO ratio treated/untreated x 100
Text: as §1, §2, §3, §4

[3] = system: human dermal fibroblast cell line, CRL2071; assay: Production of hyaluronan (ELISA); format: cell-based; settings: 72 h; for ng Hyaluronan/1 × 10^6 cells (Mean ± SD): liberated hyaluronan (>6400Da); for Hyaluronan as % of No Treatment Control (Mean ± SD): liberated
Protocol: (§5) Cells from the human dermal fibroblast cell line, CRL2071 (passages 12-14), obtained from normal breast skin of a person, were allowed to attach for 6-8 hours before the addition of the test compounds. After 72 h of exposure to the test articles the media was removed, cells counted and the cell-associated fraction extracted. The media and cell-associated fraction were analysed for the concentration of hyaluronan using a Hyaluronan Detection Kit ELISA.
(§6) The test compounds, positive controls and no treatment media were added to the flasks (2.5 ml/flask) and cells were incubated for 72 h before removal of the supernatant. After removal of the supernatant, cell monolayers were trypsinsed with 2.5 ml of 0.025% trypsin/[…] in PBS to each flask. After cell detachment (7-10 min), 1 ml of the cell/trypsin mixture was added to a 20 ml counting vial containing 9 ml of normal saline. The cells were quantitated with a Coulter Counter Z2.
(§7) In some treatments cells were found floating. They were collected, counted and subjected to viability testing using 1% trypan blue staining. The remaining 1.5 ml of trypsin/cell mixture was sonicated with a Branson tip-probed sonicator for 1 min, setting 6 before centrifugation at 10,000 rpm for 10 min. The supernatant was removed and used in the hyaluronan ELISA for the quantitation of cell-associated hyaluronan.

[4] = system: human dermal fibroblast cell line, CRL2071; assay: Production of collagen type I (ELISA); format: cell-based
Protocol: as §5, with “collagen type I” for “hyaluronan”, “Chondrex Human type I Collagen” for “Hyaluronan”, “ELISA (Cat #6021).” for “ELISA.”
After complete dissolution the solutions were sterile filtered through a […] syringe filter and kept at 4° C. until use. Prior to each experiment dilutions were freshly prepared by diluting to 100 nM, 1 μM or 10 μM in cell-specific media.
as §6
as §7, with “collagen” for “hyaluronan”, “collagen.” for “hyaluronan.”

[5] = biological target: T1, cellular tyrosinase, human primary epidermal melanocyte cell line (PCS-200-013) (Homo sapiens, UniProt P14679)
T1 sequence (P14679 19-529): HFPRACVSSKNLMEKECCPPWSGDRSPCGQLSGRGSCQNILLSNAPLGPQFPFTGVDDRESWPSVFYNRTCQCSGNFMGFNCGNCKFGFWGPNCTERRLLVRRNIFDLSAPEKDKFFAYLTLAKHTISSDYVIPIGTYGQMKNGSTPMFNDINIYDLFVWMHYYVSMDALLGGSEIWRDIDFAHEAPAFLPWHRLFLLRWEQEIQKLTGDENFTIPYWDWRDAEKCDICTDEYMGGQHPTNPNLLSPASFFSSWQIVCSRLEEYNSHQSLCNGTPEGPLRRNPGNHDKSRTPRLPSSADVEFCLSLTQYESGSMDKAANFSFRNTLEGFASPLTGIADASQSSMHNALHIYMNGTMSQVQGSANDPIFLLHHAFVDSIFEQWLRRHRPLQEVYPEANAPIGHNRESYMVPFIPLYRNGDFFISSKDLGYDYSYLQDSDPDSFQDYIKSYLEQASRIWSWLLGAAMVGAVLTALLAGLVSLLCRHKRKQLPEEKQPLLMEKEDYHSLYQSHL

testicular hyaluronidase = assay: Inhibition of hyaluronidase (turbidimetric); format: biochemical
Protocol: The heparanase inhibitors were incubated with testicular hyaluronidase in the presence of hyaluronan and after incubation the amount of hyaluronic acid remaining was quantitated. Hyaluronidase activity was measured according to the method of Tolksdorf [Tolksdorf, S. & McCready, M. H., The turbometric determination of hyaluronidase, The Journal of Laboratory and Clinical Medicine, 1949, 34(1):74-89]. Hyaluronic acid is measured by its ability to form turbidity with an acid albumin solution. […] One unit is based on the change in absorbency (turbidity) at 540 nm of an internal USP standard. All tubes were placed in a boiling water bath for 5 min and then cooled to room temperature. On cooling 9.0 ml of albumin reagent was added and tubes were allowed to stand for 10 min. Readings of absorbance at 540 nm in a Pharmacia Novatec Model II were taken. The A540nm was plotted versus the hyaluronic acid concentration (mg) to form a standard curve.

[6] = cell-associated, 20 ng/ml, 72 h
[7] = cell-associated, 10 μg/ml, 72 h

O=C(CCCCCCC(=O)Nc1ccccc1)NO [SAHA, suberoylanilide hydroxamic acid, reference compound] was tested, and the LSO % [1] was 42.4% and the LSO % [2] was 43.0%.

“TGF-β1: Transforming growth Factor β1, Sigma Aldrich, positive control” was tested, and the “ng Hyaluronan/1 × 10^6 cells (Mean ± SD)” value ([3]; 20 ng/ml) was 507 ± 68 ng Hyaluronan/1 × 10^6 cells, the “Hyaluronan as % of No Treatment Control (Mean ± SD)” value ([3]; 20 ng/ml) was 1,186 ± 159% and the “Collagen as % of No Treatment Control (Mean ± SD), Cell-associated” value [4, 6] was 719 ± 57%. The “μg collagen (Mean ± SD), Cell-Associated Collagen Type 1” value [4, 6] was 0.31 ± 0.02 µg, the “Collagen as % of No Treatment Control (Mean ± SD), Liberated” value ([4]; 20 ng/ml, 72 h) was 2,852 ± 285% and the “μg collagen (Mean ± SD), Liberated Collagen Type 1” value ([4]; 20 ng/ml, 72 h) was 1.23 ± 0.12 µg.

With O=C(CCCCCCCNC(=O)CCOCC(COCCC(=O)NCCCCCCCC(=O)NCCCCCCOC1OC(COS(=O)(=O)[O-])C(OS(=O)(=O)[O-])C(OS(=O)(=O)[O-])C1OS(=O)(=O)[O-])(COCCC(=O)NCCCCCCCC(=O)NCCCCCCOC1OC(COS(=O)(=O)[O-])C(OS(=O)(=O)[O-])C(OS(=O)(=O)[O-])C1OS(=O)(=O)[O-])COCCC(=O)NCCCCCCCC(=O)NCCCCCCOC1OC(COS(=O)(=O)[O-])C(OS(=O)(=O)[O-])C(OS(=O)(=O)[O-])C1OS(=O)(=O)[O-])NCCCCCCOC1OC(COS(=O)(=O)[O-])C(OS(=O)(=O)[O-])C(OS(=O)(=O)[O-])C1OS(=O)(=O)[O-].[Na+].[Na+].[Na+].[Na+].[Na+].[Na+].[Na+].[Na+].[Na+].[Na+].[Na+].[Na+].[Na+].[Na+].[Na+].[Na+] (centres unmarked) [Compound 17d] the “Collagen as % of No Treatment Control (Mean ± SD), Cell-associated” value [4] was 3,076 ± 803% and 5,116 ± 231%, the “μg collagen (Mean ± SD), Cell-Associated Collagen Type 1” value [4] was 1.32 ± 0.35 µg and 2.20 ± 0.10 µg and the “inhibitory effect on tyrosinase activity (in words)” value [5] was “significant inhibitory effect on tyrosinase activity”. The “Tyrosinase inhibition as a % of the "No Treatment" control (Mean ± SD)” value ([5]; 0.1 µM) was 0 ± 0%, the “Tyrosinase inhibition as a % of the "No Treatment" control (Mean ± SD)” value ([5]; 1 μM) was 0 ± 0% and the “Tyrosinase inhibition as a % of the "No Treatment" control (Mean ± SD)” value ([5]; 10 μM) was 44 ± 2%. For the same molecule, the “Hyaluronidase inhibition as a % of the "No Treatment" control (Mean ± SD)” value (testicular hyaluronidase; 100 nM) was 0 ± 0%, the “Hyaluronidase inhibition as a % of the "No Treatment" control (Mean ± SD)” value (testicular hyaluronidase; 1 μM) was 0 ± 0% and the “Hyaluronidase inhibition as a % of the "No Treatment" control (Mean ± SD)” value (testicular hyaluronidase; 10 μM) was 23 ± 1%. The “inhibition of testicular hyaluronidase (in words)” value (testicular hyaluronidase; summary of Example 11) was “effective inhibitors of testicular hyaluronidase”.

C=C[C@@](C)(/C=C/c1ccc(O)cc1)CCC=C(C)C [Bakuchiol, reference compound] was tested, and the “Collagen as % of No Treatment Control (Mean ± SD), Cell-associated” value ([4]; cell-associated, 5 μg/ml, 72 h) was 1,085 ± 60%, the “μg collagen (Mean ± SD), Cell-Associated Collagen Type 1” value ([4]; cell-associated, 5 μg/ml, 72 h) was 0.28 ± 0.02 µg and the “Collagen as % of No Treatment Control (Mean ± SD), Cell-associated” value [4, 7] was 600 ± 348%. For the same molecule, the “μg collagen (Mean ± SD), Cell-Associated Collagen Type 1” value [4, 7] was 0.29 ± 0.01 µg, the “Collagen as % of No Treatment Control (Mean ± SD), Liberated” value ([4]; 5 μg/ml, 72 h) was 43 ± 17% and the “μg collagen (Mean ± SD), Liberated Collagen Type 1” value ([4]; 5 μg/ml, 72 h) was 0.02 ± 0.01 µg. For the same molecule, the “Collagen as % of No Treatment Control (Mean ± SD), Liberated” value ([4]; 10 μg/ml, 72 h) was 357 ± 20% and the “μg collagen (Mean ± SD), Liberated Collagen Type 1” value ([4]; 10 μg/ml, 72 h) was 0.15 ± 0.01 µg.

With CC1=C(/C=C/C(C)=C/C=C/C(C)=C/CO)C(C)(C)CCC1 [Retinol, reference compound] the “ng Hyaluronan/1 × 10^6 cells (Mean ± SD)” value ([3]; 5 μg/ml) was 576 ± 0 ng Hyaluronan/1 × 10^6 cells and the “Hyaluronan as % of No Treatment Control (Mean ± SD)” value ([3]; 5 μg/ml) was 1,346 ± 0%.

B1: TGF-β2: Transforming growth Factor β2, Sigma Aldrich, positive control (protein, UniProt P61812 303-414, looked up)
Transforming growth factor …: ALDAAYCFRNVQDNCCLRPLYIDFKRDLGWKWIHEPKGYNANFCAGACPYLWSSDTQHSRVLSLYNTINPEASASPCCVSQDLEPLTILYYIGKTPKIEQLSNMIVKSCKCS
In the case of B1, the “Collagen as % of No Treatment Control (Mean ± SD), Cell-associated” value [4, 6] is reported as 77 ± 9%, the “μg collagen (Mean ± SD), Cell-Associated Collagen Type 1” value [4, 6] is reported as 0.03 ± 0.00 µg and the “Collagen as % of No Treatment Control (Mean ± SD), Liberated” value ([4]; 20 ng/ml, 72 h) is reported as 446 ± 73%. For the same molecule, the “μg collagen (Mean ± SD), Liberated Collagen Type 1” value ([4]; 20 ng/ml, 72 h) was 0.19 ± 0.03 µg.
